Test results: patent US11116713B2, “Oral care compositions and methods” (priority 2018, dated 2021)

Test system: Streptococcus mutans
Assay: Killing efficacy against Streptococcus mutans in vitro (cfu count after treatment)
Format: cell-based
Details: inoculum 2.71×10^4 cfu/ml, FIG. 1
Method: Because the primary bacterium responsible for dental caries (cavities) is Streptococcus mutans, the killing efficacy of agmatine and EGCG, alone and in combination, was determined against Streptococcus mutans. Killing efficacy was measured in vitro using Streptococcus mutans cells grown in brain heart infusion (BHI) plates for at least 24-48 hours at 37° C. Each experiment was initiated by collecting an individual colony from the BHI plate and growning the colony overnight at 37° C. and 5% CO2 in BHI liquid media. Streptococcus mutans cells were then passaged 2 times in chemically defined media for Streptococcus mutans and grown overnight at 37° C. and 5% CO2. The absorbance at A600 of the culture was measured to determine the bacterial cell concentration of the inoculum. Once the desired bacterial concentration was reached, Streptococcus mutans inoculum was plated on cell culture plates previously prepared with a range of concentrations of EGCG alone, agmatine alone, or EGCG and agmatine in combination. The plates streaked with inoculum were incubated for at least 24 hours at 37° C. and 5% CO2. After incubation, the cells were transferred to sterile tubes, plated on BHI plate using an Autoplate 4000, and incubated for at least 36 hours at 37° C. Colonies were counted and colony forming units (cfu) were calculated as recommended by Autoplate 4000 guide. […]

Row | Structure (SMILES) | bacterial concentration of Streptococcus mutans following treatment (50 μg/ml EGCG alone) | bacterial concentration of Streptococcus mutans following treatment (7.5 mg/ml agmatine alone)
1 | O=C(O[C@@H]1Cc2c(O)cc(O)cc2O[C@@H]1c1cc(O)c(O)c(O)c1)c1cc(O)c(O)c(O)c1 [EGCG, epigallocatechin gallate] | 6.00×10^1 cfu/ml | 
2 | NCCCCN=C(N)N [agmatine, (4-aminobutyl)guanidine] |  | 6.50×10^1 cfu/ml
